Results on four compounds are retold here after patent US9636338B2, “Phenyl-dihydropyridine derivatives as inhibitors of aldosterone synthase” (Hoffmann-La Roche Inc., priority 2013, dated 2017).

Test [1] deals with T1, CYP11B2 (Homo sapiens (Human), UniProt P19099). As to conditions: patients with primary aldosteronism; oral; cited from earlier work.
For test [2] the following is noted: rat CKD model, cited from earlier work; for plasma aldosterone: FAD286 4 weeks of treatment, spironolactone 4 and 8 weeks; for angiotensin II and salt-stimulated PAI-1 mRNA expression: aorta and heart.
For another test, the target named is human CYP11B1 (Homo sapiens (Human), UniProt P15538). Briefly: G-402 cellular enzyme assay, human CYP11B1 (cortisol release, HTRF). In kind it is cell-based. As to conditions: G-402 cells expressing human CYP11B1; 1 μM Deoxycortisol. The text has this: (§1) Herein we identified the use of the G-402 cell line as a host cell to ectopically express (transiently or stably) enzymes of the CYP11 family. Specifically we developed stable G-402 cells expressing ectopically human CYP11B1, human CYP11B2, human CYP11A1, cynmolgus CYP11B1 or cynomolgus CYP11B2 enzyme activity. Importantly the identified cell line G-402 expresses co-factors (adrenodoxin and adrenodoxin reductase) important for the activity of the CYP11 family and no relevant enzyme activity of the CYP11 family (in comparison to H295R cells) was detected in these cells. Therefore the G-402 cell line is uniquely suited as a host cell for the ectopic expression of enzymes from the CYP11 family. G-402 cells can be obtained from ATCC (CRL-1440) and were originally derived from a renal leiomyoblastoma.
Sequence of human CYP11B1 (P15538 25-503): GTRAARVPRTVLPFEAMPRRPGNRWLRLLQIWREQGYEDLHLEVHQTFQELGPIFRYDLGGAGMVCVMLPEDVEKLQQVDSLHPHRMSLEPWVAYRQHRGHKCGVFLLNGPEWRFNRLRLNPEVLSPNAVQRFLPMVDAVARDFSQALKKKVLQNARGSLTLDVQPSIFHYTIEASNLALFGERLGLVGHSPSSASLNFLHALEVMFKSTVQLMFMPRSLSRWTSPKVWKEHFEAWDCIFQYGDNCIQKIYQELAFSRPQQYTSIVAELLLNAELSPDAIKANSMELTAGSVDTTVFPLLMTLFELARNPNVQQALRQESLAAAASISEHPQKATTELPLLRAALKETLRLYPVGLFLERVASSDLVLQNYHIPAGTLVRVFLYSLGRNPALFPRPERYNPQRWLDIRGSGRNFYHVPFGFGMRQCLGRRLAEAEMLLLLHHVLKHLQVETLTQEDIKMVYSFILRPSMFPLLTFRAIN
(§2) The expression plasmids contains the ORF for either human/cyno CYP11B1 or CYP11B2 under the control of a suitable promoter (CMV-promoter) and a suitable resistance marker (neomycin). Using standard techniques the expression plasmid is transfected into G-402 cells and these cells are then selected for expressing the given resistance markers. Individual cell-clones are then selected and assessed for displaying the desired enzymatic activity using 11-Deoxycorticosterone (Cyp11B2) or 11-Deoxycortisol (Cyp11B1) as a substrate.
(§3) G-402 cells expressing CYP11 constructs were established as described above and maintained in McCoy's 5a Medium Modified, ATCC Catalog No. 30-2007 containing 10% FCS and 400 μg/ml G418 (Geneticin) at 37° C. under an atmosphere of 5% CO2/95% air. Cellular enzyme assays were performed in DMEM/F12 medium containing 2.5% charcoal treated FCS and appropriate concentration of substrate (0.3-10 uM 11-Deoxycorticosterone, 11-Deoxycortisol or Corticosterone). For assaying enzymatic activity, cells were plated onto 96 well plates and incubated for 16 h. An aliquot of the supernatant is then transferred and analyzed for the concentration of the expected product (Aldosterone for CYP11B2; Cortisol for CYP11B1). The concentrations of these steroids can be determined using HTRF assays from CisBio analyzing either Aldosterone or Cortisol.
(§4) Inhibition of the release of produced steroids can be used as a measure of the respective enzyme inhibition by test compounds added during the cellular enzyme assay. The dose dependent inhibition of enzymatic activity by a compound is calculated by means of plotting added inhibitor concentrations (x-axes) vs. measured steroid/product level (y-axes). The inhibition is then calculated by fitting the following 4-parameter sigmoidal function (Morgan-Mercer-Flodin (MMF) model) to the raw data points using the least squares method:
(§5) [formula] wherein, A is the maximum y value, B is the EC50 factor determined using XLFit, C is the minimum y value and D is the slope value.
(§6) EC50 values for compounds claimed herein were tested with the G402-based assay system described. Cyp11B2 enzyme activity was tested in presence of 1 μM Deoxycorticosterone and variable amounts of inhibitors; Cyp11B1 enzyme activity was tested in presence of 1 μM Deoxycortisol and variable amounts of inhibitors.

The target in test [3] is T1, CYP11B2. Briefly: G-402 cellular enzyme assay, human CYP11B2 (aldosterone release, HTRF). Type of test: cell-based. As to conditions: G-402 cells expressing human CYP11B2; 1 μM Deoxycorticosterone.
Excerpt: as §1, §2, §3, §4, §5, §6
(In general: In TR-FRET formats the signal depends on donor and acceptor labels being close together.)

T1 sequence (P19099 25-503): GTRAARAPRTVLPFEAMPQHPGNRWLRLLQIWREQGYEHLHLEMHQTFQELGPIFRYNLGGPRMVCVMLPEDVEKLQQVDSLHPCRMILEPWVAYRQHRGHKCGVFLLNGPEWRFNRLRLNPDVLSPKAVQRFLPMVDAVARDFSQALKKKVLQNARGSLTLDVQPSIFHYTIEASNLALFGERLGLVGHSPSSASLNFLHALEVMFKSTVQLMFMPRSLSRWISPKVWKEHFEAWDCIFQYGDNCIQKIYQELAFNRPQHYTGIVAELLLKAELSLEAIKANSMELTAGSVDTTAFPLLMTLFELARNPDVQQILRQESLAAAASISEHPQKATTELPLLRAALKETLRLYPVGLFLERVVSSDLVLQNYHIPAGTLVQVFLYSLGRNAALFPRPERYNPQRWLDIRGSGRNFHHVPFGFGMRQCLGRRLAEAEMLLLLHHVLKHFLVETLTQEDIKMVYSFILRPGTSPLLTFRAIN

In the case of `N#Cc1ccc([C@H]2CCc3cncn32)c(F)c1` [LCI699], on CYP11B2 [1], the blood pressure entry is reported as “mildly decreased”, the circulating aldosterone levels entry was “significantly lower” and the hypokalemia entry is “corrected”.
As to `N#Cc1ccc([C@H]2CCCc3cncn32)cc1` [FAD286], in test [2], the plasma aldosterone entry is “reduced”; the “angiotensin II and salt-stimulated PAI-1 mRNA expression” value is recorded as “not FAD286 enhanced”.
As for `CC(=O)S[C@@H]1CC2=CC(=O)CC[C@]2(C)[C@H]2CC[C@@]3(C)[C@@H](CC[C@@]34CCC(=O)O4)[C@H]12` [spironolactone], in test [2], the plasma aldosterone entry is “increased”; the “angiotensin II and salt-stimulated PAI-1 mRNA expression” value is listed as “enhanced”.
The term EC50 denotes the concentration that produces a half-maximal response. For the compound `O=C(CC1CCc2cncc(-c3ccc(C(F)(F)F)cc3F)c21)N1CCCC1` (racemic) [Example 19, (rac)-2-[4-[2-Fluoro-4-(trifluoromethyl)phenyl]-6,7-dihydro-5H-cyclopenta[c]pyridin-5-yl]-1-pyrrolidin-1-yl-ethanone], the EC50 at human CYP11B1 worked out at 8.47 µM; at CYP11B2 [3], 442 nM.
